Experimental data as given in article PMC9434621 (ACS Omega, 2022).

Tests used:
bovine erythrocyte CA [1] = biological target: T1, bovine erythrocyte CA (Bos taurus, UniProt P00921); details: sample 0.5 mM in DMSO, 15 min incubation with enzyme at room temperature
bovine erythrocyte CA [2] = biological target: T1, bovine erythrocyte CA; experiment: biochemical
bovine erythrocyte CA [3] = biological target: T1, bovine erythrocyte CA; details: test concentration not given; Figure 2

T1 sequence (P00921 whole entry): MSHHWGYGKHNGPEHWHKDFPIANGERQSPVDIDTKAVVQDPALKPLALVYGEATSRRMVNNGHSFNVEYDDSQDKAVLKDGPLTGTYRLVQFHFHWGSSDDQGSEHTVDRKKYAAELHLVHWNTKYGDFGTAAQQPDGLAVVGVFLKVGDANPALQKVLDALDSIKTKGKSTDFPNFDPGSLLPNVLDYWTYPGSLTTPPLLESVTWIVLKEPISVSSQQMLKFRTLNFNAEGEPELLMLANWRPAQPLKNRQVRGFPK

| Compound | enhancement of fluorescence signal after complex formation with CA (bovine erythrocyte CA [1]) | IC50 (bovine erythrocyte CA [2]) [µM] | % inhibition (bovine erythrocyte CA [3]) [%] |
| --- | --- | --- | --- |
| CCCC1=NOC(=O)/C1=C/c1cccs1 [AC2, (E)-3-Propyl-4-(thiophen-2-ylmethylene) Isoxazol-5(4H)-one] | significant fluorescence enhancement | 112 ± 1.6 | 79.5 |
| CCCC1=NOC(=O)/C1=C/c1ccc(O)cc1 [AC4, (E)-4-(4-Hydroxybenzylidene)-3-propylisoxazol-5(4H)-one] | – | – | 50.5 |
| (E)-4-(2-Methoxybenzylidene)-3-propylisoxazol-5(4H)-one [AC3] | significant fluorescence enhancement | – | 68.7 |
| CCCC1=NOC(=O)/C1=C/c1ccc(OC)cc1O [AC1, (E)-4-(2-Hydroxy-4-methoxybenzylidene)-3-propylisoxazol-5(4H)-one] | – | – | 58.4 |
